According to patent US10508088B2, “Methods using HDAC11 inhibitors” (FORMA Therapeutics, Inc., priority 2016, dated 2019):

What follows are compounds tested against Full length human recombinant HDAC11 (Homo sapiens (Human), UniProt Q96DB2) (assay: Enzymatic HDAC11 assay, electrophoretic mobility shift). Conditions: substrate FAM-RHKK(tri-fluor-Ac)-NH2, read-out: HDAC11 IC50 Range.
Format: biochemical
Protocol: The enzymatic HDAC11 assay was performed using electrophoretic mobility shift assay. Full length human recombinant HDAC11 protein was expressed in baculoviral system and purified by affinity chromatography. The enzymatic reactions were assembled in 384 well plates in a total volume of 25 μL in a reaction buffer composing: 100 mM HEPES, pH 7.5, 25 mM KCl, 0.1% bovine serum albumin, 0.01% Triton X-100, 1% DMSO (from compounds) 2 μM of the fluorescently labeled peptide substrate and enzyme. The enzyme was added at a final concentration of 10 nM. The peptide substrate FAM-RHKK(tri-fluor-Ac)-NH2 was used. The compounds were tested at 12 concentrations spaced by 3× dilution intervals. Negative control samples (0%-inhibition in the absence of inhibitor) and positive control samples (100%-inhibition) were assembled in replicates of four in each assay plate. The reactions were incubated at 25° C. and quenched by the addition of 45 μL of termination buffer (100 mM HEPES, pH 7.5, 0.01% Triton X-100, 0.05% SDS).
The terminated assay plates were analyzed on LabChip® 3000 microfluidic electrophoresis instrument (Perkin Elmer/Caliper Life Sciences). The fluorescence intensity of the electrophoretically separated de-acetylated product and substrate peptide was measured. Activity in each sample was determined as the product to sum ratio (PSR):P/(S+P), where P is the peak height of the product peptide and S is the peak height of the substrate peptide. Percent inhibition (Pinh) is determined using the following equation: Pinh=(PSR0%−PSRinh)/(PSR0%−PSR100%)*100,
where PSRinh is the product sum ratio in the presence of inhibitor, PSR0% is the average product sum ration in the absence of inhibitor and PSR100% is the average product sum ratio in 100%-inhibition control samples. The IC50 values of inhibitors were determined by fitting the percent inhibition curves with 4 parameter dose-response model using XLfit 4 software.

Chain of Full length human recombinant HDAC11 (Q96DB2 whole entry): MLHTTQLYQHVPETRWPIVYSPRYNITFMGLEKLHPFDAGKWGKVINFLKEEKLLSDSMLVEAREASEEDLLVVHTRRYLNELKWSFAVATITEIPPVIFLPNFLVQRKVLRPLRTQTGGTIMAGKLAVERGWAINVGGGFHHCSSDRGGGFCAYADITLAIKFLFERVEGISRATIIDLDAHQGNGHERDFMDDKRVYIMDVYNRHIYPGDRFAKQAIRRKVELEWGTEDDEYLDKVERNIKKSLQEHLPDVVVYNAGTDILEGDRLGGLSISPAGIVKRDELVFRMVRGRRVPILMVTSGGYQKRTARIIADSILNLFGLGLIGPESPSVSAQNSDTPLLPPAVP

Compared with O=C(NO)c1cccc2c1CC1(CCN(Cc3ccc(C(F)(F)F)nc3)C1=O)C2 (centres unmarked) [II-48, N-hydroxy-2′-oxo-1′-((6-(trifluoromethyl)pyridin-3-yl)methyl)-1,3-dihydrospiro[indene-2,3′-pyrrolidine]-4-carboxamide], O=C(NO)c1cccc2c1CC1(CCN(Cc3ccc(C(F)(F)F)cc3)C1=O)C2 (centres unmarked) [II-6, N-hydroxy-2′-oxo-1′-(4-(trifluoromethyl)benzyl)-1,3-dihydrospiro[indene-2,3′-pyrrolidine]-4-carboxamide] is lower in IC50: greater than 1 µM for the first, less than 0.5 µM for the second. The second is the more potent here.

First: O=C(NO)c1cccc2c1CCC1(CCN(c3cccc(C(F)(F)F)c3)C1=O)C2 (centres unmarked) [II-89, N-hydroxy-2′-oxo-1′-(3-(trifluoromethyl)phenyl)-3,4-dihydro-1H-spiro[naphthalene-2,3′-pyrrolidine]-5-carboxamide]
Second: O=C(NO)c1cccc2c1CCC1(CCN(c3ccc(C(F)(F)F)cc3)C1=O)C2 (centres unmarked) [II-88, N-hydroxy-2′-oxo-1′-(4-(trifluoromethyl)phenyl)-3,4-dihydro-1H-spiro[naphthalene-2,3′-pyrrolidine]-5-carboxamide]
The IC50 of the first is higher: 0.5 to 1 µM for the first, less than 0.5 µM for the second. The second is the more potent here.

Compared with O=C(NO)c1cccc2c1CCC1(CCN(c3ccccc3C(F)(F)F)C1=O)C2 (centres unmarked) [II-90, N-hydroxy-2′-oxo-1′-(2-(trifluoromethyl)phenyl)-3,4-dihydro-1H-spiro[naphthalene-2,3′-pyrrolidine]-5-carboxamide], O=C(NO)c1cccc2c1CC1(CCN(Cc3ccccc3C(F)(F)F)C1=O)C2 (centres unmarked) [II-29, N-hydroxy-2′-oxo-1′-(2-(trifluoromethyl)benzyl)-1,3-dihydrospiro[indene-2,3′-pyrrolidine]-4-carboxamide] is lower in IC50: greater than 1 µM for the first, 0.5 to 1 µM for the second.

First: O=C(NO)c1cccc2c1CCC1(CCN(Cc3ccc(C(F)(F)F)cc3)C1=O)C2 (centres unmarked) [II-85, N-hydroxy-2′-oxo-1′-(4-(trifluoromethyl)benzyl)-3,4-dihydro-1H-spiro[naphthalene-2,3′-pyrrolidine]-5-carboxamide]
Second: O=C(NO)c1cccc2c1CC1(CCN(Cc3ccc(C(F)(F)F)cc3)C1)C2 (centres unmarked) [II-56, N-hydroxy-1′-(4-(trifluoromethyl)benzyl)-1,3-dihydrospiro[indene-2,3′-pyrrolidine]-4-carboxamide]
The IC50 of the first is lower: less than 0.5 µM for the first, 0.5 to 1 µM for the second. The first is the more potent here.

CN1CCC2(Cc3cccc(C(=O)NO)c3C2)C1=O (centres unmarked) [II-2, N-hydroxy-1′-methyl-2′-oxo-1,3-dihydrospiro[indene-2,3′-pyrrolidine]-4-carboxamide] and O=C(NO)c1cccc2c1CC1(CCN(C3CC3)C1=O)C2 (centres unmarked) [II-9, 1′-cyclopropyl-N-hydroxy-2′-oxo-1,3-dihydrospiro[indene-2,3′-pyrrolidine]-4-carboxamide] cannot be ordered by IC50: greater than 1 µM for the first, greater than 1 µM for the second.

O=C(NO)c1cccc2c1CC1(CCN(Cc3cc(F)cc(F)c3)C1=O)C2 (centres unmarked) [II-28, 1′-(3,5-difluorobenzyl)-N-hydroxy-2′-oxo-1,3-dihydrospiro[indene-2,3′-pyrrolidine]-4-carboxamide] and O=C(NO)c1cccc2c1CC1(CCN(Cc3cccc(F)c3)C1=O)C2 (centres unmarked) [II-26, 1′-(3-fluorobenzyl)-N-hydroxy-2′-oxo-1,3-dihydrospiro[indene-2,3′-pyrrolidine]-4-carboxamide] cannot be ordered by IC50: greater than 1 µM for the first, greater than 1 µM for the second.

Compared with O=C(NO)c1cccc2c1CC1(CCN(Cc3cccc(Br)c3)C1=O)C2 (centres unmarked) [II-33, 1′-(3-bromobenzyl)-N-hydroxy-2′-oxo-1,3-dihydrospiro[indene-2,3′-pyrrolidine]-4-carboxamide], Cc1cccc(CN2CCC3(Cc4cccc(C(=O)NO)c4C3)C2=O)c1 (centres unmarked) [II-17, N-hydroxy-1′-(3-methylbenzyl)-2′-oxo-1,3-dihydrospiro[indene-2,3′-pyrrolidine]-4-carboxamide] is higher in IC50: less than 0.5 µM for the first, 0.5 to 1 µM for the second. The first is the more potent here.

O=C(NO)c1cccc2c1OC1(CC2)CCN(S(=O)(=O)C2CCCCC2)CC1 [II-76, 1′-(cyclohexylsulfonyl)-N-hydroxyspiro[chromane-2,4′-piperidine]-8-carboxamide] and O=C(NO)c1cccc2c1OC1(CC2)CCN(C2CCCCC2)CC1 [II-81, 1′-cyclohexyl-N-hydroxyspiro[chromane-2,4′-piperidine]-8-carboxamide] cannot be ordered by IC50: greater than 1 µM for the first, greater than 1 µM for the second.

O=C(NO)c1cccc2c1CC1(CCN(C3CC3)C1)C2 (centres unmarked) [II-57, 1′-cyclopropyl-N-hydroxy-1,3-dihydrospiro[indene-2,3′-pyrrolidine]-4-carboxamide] and O=C(NO)c1cccc2c1CC1(CCN(CC3CC3)C1=O)C2 (centres unmarked) [II-55, 1′-(cyclopropylmethyl)-N-hydroxy-2′-oxo-1,3-dihydrospiro[indene-2,3′-pyrrolidine]-4-carboxamide] cannot be ordered by IC50: greater than 1 µM for the first, greater than 1 µM for the second.

CC(=O)N1CCC2(CCc3c(cccc3C(=O)NO)O2)CC1 [II-91, 1′-acetyl-N-hydroxyspiro[chromane-2,4′-piperidine]-5-carboxamide] and O=C(NO)c1cccc2c1OC1(CC2)CCN(Cc2ccc(F)cc2)CC1 [II-80, 1′-(4-fluorobenzyl)-N-hydroxyspiro[chromane-2,4′-piperidine]-8-carboxamide] cannot be ordered by IC50: greater than 1 µM for the first, greater than 1 µM for the second.

Compared with Cc1noc(C)c1CN1CCC2(Cc3cccc(C(=O)NO)c3C2)C1=O (centres unmarked) [II-50, 1′-((3,5-dimethylisoxazol-4-yl)methyl)-N-hydroxy-2′-oxo-1,3-dihydrospiro[indene-2,3′-pyrrolidine]-4-carboxamide], Cc1ccc(CN2CCC3(Cc4cccc(C(=O)NO)c4C3)C2=O)cc1C (centres unmarked) [II-39, 1′-(3,4-dimethylbenzyl)-N-hydroxy-2′-oxo-1,3-dihydrospiro[indene-2,3′-pyrrolidine]-4-carboxamide] is lower in IC50: greater than 1 µM for the first, 0.5 to 1 µM for the second.

Going from O=C(NO)c1cccc2c1CC1(CCN(Cc3ccccc3Cl)C1=O)C2 (centres unmarked) [II-25, 1′-(2-chlorobenzyl)-N-hydroxy-2′-oxo-1,3-dihydrospiro[indene-2,3′-pyrrolidine]-4-carboxamide] to O=C(NO)c1cccc2c1CC1(CCN(Cc3cccc(Cl)c3Cl)C1=O)C2 (centres unmarked) [II-22, 1′-(2,3-dichlorobenzyl)-N-hydroxy-2′-oxo-1,3-dihydrospiro[indene-2,3′-pyrrolidine]-4-carboxamide], the IC50 falls from greater than 1 µM to less than 0.5 µM. The second is the more potent here.

Compared with O=C(NO)c1cccc2c1CC1(CCN(Cc3ccc(OCc4ccccc4)cc3)C1=O)C2 (centres unmarked) [II-41, 1′-(4-(benzyloxy)benzyl)-N-hydroxy-2′-oxo-1,3-dihydrospiro[indene-2,3′-pyrrolidine]-4-carboxamide], O=C(NO)c1cccc2c1CC1(CCN(Cc3ccccc3)C1=O)C2 (centres unmarked) [II-14, 1′-benzyl-N-hydroxy-2′-oxo-1,3-dihydrospiro[indene-2,3′-pyrrolidine]-4-carboxamide] is higher in IC50: less than 0.5 µM for the first, greater than 1 µM for the second.

O=C(NO)c1cccc2c1CC1(CCN(Cc3cccc(C(F)(F)F)n3)C1=O)C2 (centres unmarked) [II-51, N-hydroxy-2′-oxo-1′-((6-(trifluoromethyl)pyridin-2-yl)methyl)-1,3-dihydrospiro[indene-2,3′-pyrrolidine]-4-carboxamide] and O=C(NO)c1cccc2c1CC1(CCN(Cc3ccc(F)cc3F)C1=O)C2 (centres unmarked) [II-35, 1′-(2,4-difluorobenzyl)-N-hydroxy-2′-oxo-1,3-dihydrospiro[indene-2,3′-pyrrolidine]-4-carboxamide] cannot be ordered by IC50: greater than 1 µM for the first, greater than 1 µM for the second.

O=C(NO)c1cccc2c1CC1(CCN(Cc3cc(-c4ccccc4)no3)C1=O)C2 (centres unmarked) [II-46, N-hydroxy-2′-oxo-1′-((3-phenylisoxazol-5-yl)methyl)-1,3-dihydrospiro[indene-2,3′-pyrrolidine]-4-carboxamide] and O=C(NO)c1cccc2c1CC1(CCN(Cc3csc(-c4ccccc4)n3)C1=O)C2 (centres unmarked) [II-34, N-hydroxy-2′-oxo-1′-((2-phenylthiazol-4-yl)methyl)-1,3-dihydrospiro[indene-2,3′-pyrrolidine]-4-carboxamide] cannot be ordered by IC50: greater than 1 µM for the first, greater than 1 µM for the second.

First: O=C(NO)c1cccc2c1CC1(CCN(Cc3cc(Cl)ccc3Cl)C1=O)C2 (centres unmarked) [II-45, 1′-(2,5-dichlorobenzyl)-N-hydroxy-2′-oxo-1,3-dihydrospiro[indene-2,3′-pyrrolidine]-4-carboxamide]
Second: CS(=O)(=O)c1ccc(CN2CCC3(Cc4cccc(C(=O)NO)c4C3)C2=O)cc1 (centres unmarked) [II-8, N-hydroxy-1′-(4-(methylsulfonyl)benzyl)-2′-oxo-1,3-dihydrospiro[indene-2,3′-pyrrolidine]-4-carboxamide]
The IC50 of the first is lower: 0.5 to 1 µM for the first, greater than 1 µM for the second.

Going from O=C(NO)c1cccc2c1CC1(CCN(Cc3cccc(-c4ccccc4)c3)C1=O)C2 (centres unmarked) [II-18, 1′-([1,1′-biphenyl]-3-ylmethyl)-N-hydroxy-2′-oxo-1,3-dihydrospiro[indene-2,3′-pyrrolidine]-4-carboxamide] to O=C(NO)c1cccc2c1CC1(CCN(Cc3ccccc3)CC1)C2=O [II-65, 1′-benzyl-N-hydroxy-1-oxo-1,3-dihydrospiro[indene-2,4′-piperidine]-4-carboxamide], the IC50 rises from less than 0.5 µM to greater than 1 µM.

O=C(NO)c1cccc2c1CC1(CCN(Cc3ccc(Cl)cc3)CC1)C2 [II-62, 1′-(4-chlorobenzyl)-N-hydroxy-1,3-dihydrospiro[indene-2,4′-piperidine]-4-carboxamide] gave an IC50 greater than 1 µM.
